The text below walks through data of ChEMBL document CHEMBL1129577, “Identification of a novel oxazolidinone (U-100480) with potent antimycobacterial activity” (1996).

Structures are written as SMILES.

The test system of test [1] is Mycobacterium tuberculosis. Nature of the test: In vitro anti-mycobacterial activity against multiple resistant strains of Mycobacterium tuberculosis at 0.125 ug/mL. The class given is functional.
Test [2] concerns Mycobacterium tuberculosis. Nature of the test: In vitro anti-mycobacterial activity against multiple resistant strains of Mycobacterium tuberculosis at 0.50 ug/mL. It counts as functional.

On to `CC(=O)NC[C@H]1CN(c2ccc(N3CCSCC3)c(F)c2)C(=O)O1` [SUTEZOLID], for which the values for the No. of strains in test [1] and in test [2] were 3 and 2, respectively.

In test [2], `CC(=O)NC[C@H]1CN(c2ccc(N3CCS(=O)(=O)CC3)c(F)c2)C(=O)O1` yielded a No. of strains of 4.
